Each structure is given as a SMILES string.

The target in the test is recombinant human 11β-HSD type 1 enzyme (Homo sapiens, UniProt P28845). As to the kind of experiment: 11β-HSD type 1 enzyme assay (NADPH production by fluorescence). The class given is biochemical. The settings on record: three hour incubation at room temperature. On the procedure: 11β-HSD Type 1 Enzyme Assay
recombinant human 11β-HSD type 1 enzyme, sequence (P28845 whole entry): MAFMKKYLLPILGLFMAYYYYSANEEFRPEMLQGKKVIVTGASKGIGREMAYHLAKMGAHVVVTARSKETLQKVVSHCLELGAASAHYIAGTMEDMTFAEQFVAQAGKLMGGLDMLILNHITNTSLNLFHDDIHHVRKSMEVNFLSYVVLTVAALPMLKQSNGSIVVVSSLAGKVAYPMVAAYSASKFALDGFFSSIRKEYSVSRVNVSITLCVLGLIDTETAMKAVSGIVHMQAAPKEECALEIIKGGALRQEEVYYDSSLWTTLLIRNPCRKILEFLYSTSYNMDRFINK
Human 11β-HSD type 1 activity is measured by assaying NADPH production by fluorescence assay. Solid compounds are dissolved in DMSO to a concentration of 10 mM. Twenty microliters of each are then transferred to a column of a 96-well polypropylene Nunc plate where they are further diluted 50-fold followed by subsequent two-fold titration, ten times across the plate with additional DMSO using a Tecan Genesis 200 automated system. Plates are then transferred to a Tecan Freedom 200 system with an attached Tecan Temo 96-well head and an Ultra 384 plate reader. Reagents are supplied in 96-well polypropylene Nunc plates and are dispensed individually into black 96-well Molecular Devices High Efficiency assay plates (40 μL/well capacity) in the following fashion: 9 μL/well of substrate (2.22 mM NADP, 55.5 μM Cortisol, 10 mM Tris, 0.25% Prionex, 0.1% Triton X100), 3 μL/well of water to compound wells or 3 μL to control and standard wells, 6 μL/well recombinant human 11β-HSD type 1 enzyme, 2 μL/well of compound dilutions. For ultimate calculation of percent inhibition, a series of wells are added that represent assay minimum and maximum: one set containing substrate with 667 μM carbenoxolone (background), and another set containing substrate and enzyme without compound (maximum signal). Final DMSO concentration is 0.5% for all compounds, controls and standards. Plates are then placed on a shaker by the robotic arm of the Tecan for 15 seconds before being covered and stacked for a three hour incubation period at room temperature. Upon completion of this incubation, the Tecan robotic arm removes each plate individually from the stacker and places them in position for addition of 5 μL/well of a 250 μM carbenoxolone solution to stop the enzymatic reaction. Plates are then shaken once more for 15 seconds then placed into an Ultra 384 microplate reader (355EX/460EM) for detection of NADPH fluorescence.
By IC50 is commonly meant the concentration needed to halve the response being measured. With `O=C1C(Cc2sc3ccccc3c2Cl)CCCN1C1CCC(O)CC1` (stereo not shown), the IC50 is 0.276 µM. Next, `O=C1C(Cc2cc3ccccc3s2)CCN1C1CCCCC1` (stereo not shown): 0.19 µM; `O=C1C(Cc2cc3ccccc3o2)CCN1C1CCCCC1` (stereo not shown): 0.682 µM; `O=C(O)c1ccc(-c2ccc3sc(CC4CCN(C5CCCCC5)C4=O)cc3c2)cc1` (stereo not shown): 0.427 µM. For `O=C1C(Cc2sc3cc4c(cc3c2Cl)OCO4)CCN1C1CCCCC1` (stereo not shown) the value was 0.162 µM. Next, `COc1ccc2c(Cl)c(CC3CCN(C4CCCCC4)C3=O)sc2c1` (stereo not shown): 0.508 µM; `O=C1C(Cc2cc3cc(-c4ccnc(F)c4)ccc3s2)CCN1C1CCCCC1` (stereo not shown): 0.257 µM.

The values above are taken from patent publication US7834194B2, “Cycloalkyl lactam derivatives as inhibitors of 11-beta-hydroxysteroid dehydrogenase 1” (Eli Lilly and Company, priority 2004, dated 2010).
